Patent publication US7060822B1, “2-pyrazolin-5-ones” (Abbott GmbH & Co. KG, priority 1999, dated 2006)

| melting point | Compound |
| --- | --- |
| 245 to 247 °C | O=C1NN=C(c2ccc[nH]2)C1=Cc1ccc[nH]1 [Example 67, 3-(Pyrrol-2-yl)-4-[(pyrrol-2-yl)methylene]-2-pyrazolin-5-one] |
| 212 to 215 °C | Cc1c[nH]c(C=C2C(=O)NN=C2C2CC2)c1 [Example 68, 3-Cyclopropyl-4-[(4-methylpyrrol-2-yl)methylene]-2-pyrazolin-5-one] |
| 327 to 329 °C | Cc1c[nH]c(C=C2C(=O)NN=C2c2nc3ccccc3s2)c1 [Example 69, 3-(Benzothiazol-2-yl)-4-[(4-methylpyrrol-2-yl)methylene]-2-pyrazolin-5-one] |
| 170 to 172 °C | Cc1ccc(C=C2C(=O)NN=C2C2CC2)[nH]1 [Example 72, 3-Cyclopropyl-4-[(5-methylpyrrol-2-yl)methylene]-2-pyrazolin-5-one] |
| 163 to 165 °C | CCc1ccc(C=C2C(=O)NN=C2C2CC2)[nH]1 [Example 74, 3-Cyclopropyl-4-[(5-ethylpyrrol-2-yl)methylene]-2-pyrazolin-5-one] |
| 240 to 242 °C | CCOC(=O)c1c(C)[nH]c(C=C2C(=O)NN=C2C2CC2)c1C [Example 75, 3-Cyclopropyl-4-[(3,5-dimethyl-4-ethoxycarbonylpyrrol-2-yl)methylene]-2-pyrazolin-5-one] |
| 212 to 214 °C | CC(C)OC1=NNC(=O)C1=Cc1ccc(-c2ccccc2)[nH]1 [Example 76, 3-Isopropoxy-4-[(5-phenylpyrrol-2-yl)methylene]-2-pyrazolin-5-one] |
| 134 to 136 °C | O=C1NN=C(C2CC2)C1=Cc1cccn1CCCCO [Example 81, 3-Cyclopropyl-4-{[1-(4-hydroxybutyl)pyrrol-2-yl]methylene]-2-pyrazolin-5-one] |
| 267 to 269 °C | Cc1c(CCC(=O)O)c[nH]c1C=C1C(=O)NN=C1OC(C)C [Example 82, 4-{[4-(2-Carboxyethyl)-3-methylpyrrol-2-yl]methylene}-3-isopropoxy-2-pyrazolin-5-one] |
| > 300 °C | Cc1[nH]c(C=C2C(=O)NN=C2OC(C)C)c(C)c1C(=O)O [Example 83, 4-[(4-Carboxy-3,5-dimethylpyrrol-2-yl)methylene]-3-isopropoxy-2-pyrazolin-5-one] |
| 162 to 164 °C | Cc1[nH]c(C=C2C(=O)NN=C2OC(C)C)c(C)c1CN1CCOCC1 [Example 85, 4-[(3,5-Dimethyl-4-morpholinomethylpyrrol-2-yl)methylene]-3-isopropoxy-2-pyrazolin-5-one] |
| 173 to 175 °C | Cc1[nH]c(C=C2C(=O)NN=C2OC(C)C)c(C)c1CN(C)C [Example 86, 4-[(3,5-Dimethyl-4-dimethylaminomethylpyrrol-2-yl)methylene]-3-isopropoxy-2-pyrazolin-5-one] |
| 209 to 210 °C | CC(=O)c1c(C)[nH]c(C=C2C(=O)NN=C2OC(C)C)c1C [Example 87, 4-[(4-Acetyl-3,5-dimethylpyrrol-2-yl)methylene]-3-isopropoxy-2-pyrazolin-5-one] |
| 165 to 167 °C | Cc1[nH]c(C=C2C(=O)NN=C2OC(C)C)c(C)c1C(=O)OCCN(C)C [Example 88, 4-{[4-(2-Dimethylaminoethoxycarbonyl)-3,5-dimethylpyrrol-2-yl]methylene}-3-isopropoxy-2-pyrazolin-5-one] |
| 205 to 207 °C | CCOC(=O)c1ccc(C=C2C(=O)NN=C2OC(C)C)[nH]1 [Example 90, 4-[(5-Ethoxycarbonylpyrrol-2-yl)methylene]-3-isopropoxy-2-pyrazolin-5-one] |
| 235 to 237 °C | CC(C)OC1=NNC(=O)C1=Cc1ccc(C(=O)O)[nH]1 [Example 91, 4-[(5-Carboxypyrrol-2-yl)methylene]-3-isopropoxy-2-pyrazolin-5-one] |

| melting point | Compound |
| --- | --- |
| 240 to 242 °C | O=C(CC1=NNC(=O)C1=Cc1ccc[nH]1)Nc1ccc(Cl)cc1 [Example 92, 3-(4-Chlorophenylaminocarbonylmethyl)-4-[(pyrrol-2-yl)methylene]-2-pyrazolin-5-one] |
| 208 to 210 °C | O=C1NN=C(C2CC2)C1=Cc1ccc(-c2ccccc2)[nH]1 [Example 93, 3-Cyclopropyl-4-[(5-phenylpyrrol-2-yl)methylene]-2-pyrazolin-5-one] |
| 163 to 165 °C | CCc1c(C)[nH]c(C=C2C(=O)NN=C2C2CCOC2)c1C (stereo not shown) [Example 94, 4-[(3,5-Dimethyl-4-ethylpyrrol-2-yl)methylene]-3-(tetrahydrofuran-3-yl)-2-pyrazolin-5-one] |
| 312 °C (dec.) | Cc1[nH]c(C=C2C(=O)NN=C2C2CC2)c(C)c1C(=O)O [Example 95, 4-[(4-Carboxy-3,5-dimethylpyrrol-2-yl)methylene]-3-cyclopropyl-2-pyrazolin-5-one] |
| 247 to 249 °C | CCOC(=O)c1c(C)[nH]c(C=C2C(=O)NN=C2c2cccnc2)c1C [Example 96, 4-[(3,5-dimethyl-4-ethoxycarbonylpyrrol-2-yl)methylene]-3-(3-pyridyl)-2-pyrazolin-5-one] |
| 175 to 177 °C | Cc1[nH]c(C=C2C(=O)NN=C2C2CC2)c(C)c1CN1CCOCC1 [Example 97, 3-Cyclopropyl-4-[(3,5-dimethyl-4-morpholinomethylpyrrol-2-yl)methylene]-2-pyrazolin-5-one] |
| 245 to 250 °C | Cc1c[nH]c(C=C2C(=O)NN=C2c2cnccn2)c1C [Example 98, 4-[(3,4-dimethylpyrrol-2-yl)methylene]-3-pyrazinyl-2-pyrazolin-5-one] |
| 290 °C (dec.) | Cc1c(CCC(=O)O)c[nH]c1C=C1C(=O)NN=C1C1CC1 [Example 99, 4-{[4-(2-Carboxyethyl)-3-methylpyrrol-2-yl]methylene}-3-cyclopropyl-2-pyrazolin-5-one] |
| 176 to 178 °C | Cc1[nH]c(C=C2C(=O)NN=C2C2CC2)c(C)c1CN(C)C [Example 100, 3-Cyclopropyl-4-[(3,5-dimethyl-4-dimethylaminomethylpyrrol-2-yl)methylene]-2-pyrazolin-5-one] |
| 134 to 136 °C | COC(=O)CCC1=NNC(=O)C1=Cc1ccc[nH]1 [Example 103, 3-(2-Methoxycarbonylethyl)-4-[(pyrrol-2-yl)methylene]-2-pyrazolin-5-one] |
| 177 to 179 °C | CCOC(=O)C1=NNC(=O)C1=Cc1ccc[nH]1 [Example 104, 3-Ethoxycarbonyl-4-[(pyrrol-2-yl)methylene]-2-pyrazolin-5-one] |
| 120 to 122 °C | CC(C)C1=NNC(=O)C1=Cc1ccc[nH]1 [Example 105, 3-Isopropyl-4-[(pyrrol-2-yl)methylene]-2-pyrazolin-5-one] |
| 176 to 178 °C | O=C1NN=C(C2CCCCC2)C1=Cc1ccc[nH]1 [Example 107, 3-Cyclohexyl-4-[(pyrrol-2-yl)methylene]-2-pyrazolin-5-one] |
| 184 to 186 °C | O=C1NN=C(C2CC2)C1=Cc1ccc(CN2CCOCC2)[nH]1 [Example 109, 3-Cyclopropyl-4-[(5-morpholinomethylpyrrol-2-yl)methylene]-2-pyrazolin-5-one] |
| 220 °C (dec.) | O=C1NN=C(C2CC2)C1=Cc1ccc(C(=O)O)[nH]1 [Example 110, 4-[(5-Carboxypyrrol-2-yl)methylene]-3-cyclopropyl-2-pyrazolin-5-one] |
